In ChEMBL document CHEMBL4043145, “Pyridine-pyrimidine amides that prevent HGF-induced epithelial scattering by two distinct mechanisms” (Bioorg Med Chem Lett, 2017):

Experiments:
MCF7 [1] = assay: Cell cycle arrest in human MCF7 cells assessed as accumulation at S phase at 1000 nM (reference value: 25.36 to 26.82%); format: functional
MCF7 [2] = assay: Cell cycle arrest in human MCF7 cells assessed as accumulation at S phase at 300 nM (reference value: 25.36 to 26.82%); format: functional
MFE-280 [3] = assay: Induction of apoptosis in human MFE280 cells assessed as early apoptotic cells at 300 nM by 7-AAD/Annexin staining-based assay (reference value: 5.1 to 6.2%); format: functional
PC-3 [4] = assay: Cell cycle arrest in human p53-null PC3 cells assessed as accumulation at G1 phase at 1000 nM (reference value: 50.77 to 51.16%); format: functional
MCF7 [5] = assay: Cell cycle arrest in human MCF7 cells assessed as accumulation at G2/M phase at 100 nM (reference value: 20.06 to 22.33%); format: functional
T47D [6] = assay: Cell cycle arrest in human T47D cells assessed as accumulation at G2/M phase at 300 nM (reference value: 20.58 to 28.8%); format: functional
T47D [7] = assay: Cell cycle arrest in human T47D cells assessed as accumulation at G2/M phase at 100 nM (reference value: 20.58 to 28.8%); format: functional
MFE-280 [8] = assay: Cell cycle arrest in human MFE280 cells assessed as accumulation at G2/M phase at 1000 nM (reference value: 16.43 to 17.9%); format: functional
A2780 [9] = assay: Cell cycle arrest in human A2780 cells assessed as accumulation at G1 phase at 1000 nM (reference value: 55.26 to 55.66%); format: functional
MFE-280 [10] = assay: Cell cycle arrest in human MFE280 cells assessed as accumulation at G1 phase at 300 nM (reference value: 64.99 to 67.86%); format: functional
MFE-280 [11] = assay: Cell cycle arrest in human MFE280 cells assessed as accumulation at G2/M phase at 100 nM (reference value: 16.43 to 17.9%); format: functional
PC-3 [12] = assay: Cell cycle arrest in human p53-null PC3 cells assessed as accumulation at G1 phase at 300 nM (reference value: 50.77 to 51.16%); format: functional
A2780 [13] = assay: Cell cycle arrest in human A2780 cells assessed as accumulation at G2/M phase at 100 nM (reference value: 19.42 to 20.43%); format: functional
MCF7 [14] = assay: Cell cycle arrest in human MCF7 cells assessed as accumulation at S phase at 100 nM (reference value: 25.36 to 26.82%); format: functional
MFE-280 [15] = assay: Cell cycle arrest in human MFE280 cells assessed as accumulation at S phase at 100 nM (reference value: 14.14 to 15.66%); format: functional
MCF7 [16] = assay: Induction of apoptosis in human MCF7 cells assessed as late apoptotic cells at 1000 nM by 7-AAD/Annexin staining-based assay (reference value: 1 to 2.1%); format: functional
A2780 [17] = assay: Cell cycle arrest in human A2780 cells assessed as accumulation at G2/M phase at 1000 nM (reference value: 19.42 to 20.43%); format: functional
A2780 [18] = assay: Cell cycle arrest in human A2780 cells assessed as accumulation at S phase at 1000 nM (reference value: 21.16 to 22.81%); format: functional
MFE-296 [19] = assay: Cell cycle arrest in human MFE296 cells assessed as accumulation at S phase at 1000 nM (reference value: 16.96 to 19.19%); format: functional
PC-3 [20] = assay: Cell cycle arrest in human p53-null PC3 cells assessed as accumulation at G2/M phase at 300 nM (reference value: 18.37 to 18.96%); format: functional
MFE-296 [21] = assay: Cell cycle arrest in human MFE296 cells assessed as accumulation at G2/M phase at 300 nM (reference value: 15.71 to 17.04%); format: functional
MFE-280 [22] = assay: Cell cycle arrest in human MFE280 cells assessed as accumulation at S phase at 300 nM (reference value: 14.14 to 15.66%); format: functional
PC-3 [23] = assay: Cell cycle arrest in human p53-null PC3 cells assessed as accumulation at S phase at 1000 nM (reference value: 29.08 to 29.33%); format: functional
MCF7 [24] = assay: Cell cycle arrest in human MCF7 cells assessed as accumulation at G1 phase at 1000 nM (reference value: 47.47 to 52.3%); format: functional
PC-3 [25] = assay: Cell cycle arrest in human p53-null PC3 cells assessed as accumulation at G2/M phase at 1000 nM (reference value: 18.37 to 18.96%); format: functional
MFE-296 [26] = assay: Cell cycle arrest in human MFE296 cells assessed as accumulation at G2/M phase at 1000 nM (reference value: 15.71 to 17.04%); format: functional
MFE-280 [27] = assay: Cell cycle arrest in human MFE280 cells assessed as accumulation at G1 phase at 100 nM (reference value: 64.99 to 67.86%); format: functional
T47D [28] = assay: Cell cycle arrest in human T47D cells assessed as accumulation at S phase at 100 nM (reference value: 19.89 to 24.55%); format: functional
MFE-280 [29] = assay: Induction of apoptosis in human MFE280 cells assessed as early apoptotic cells at 1000 nM by 7-AAD/Annexin staining-based assay (reference value: 5.1 to 6.2%); format: functional
T47D [30] = assay: Cell cycle arrest in human T47D cells assessed as accumulation at S phase at 1000 nM (reference value: 19.89 to 24.55%); format: functional
MFE-280 [31] = assay: Induction of apoptosis in human MFE280 cells assessed as late apoptotic cells at 1000 nM by 7-AAD/Annexin staining-based assay (reference value: 6 to 7.4%); format: functional
MFE-280 [32] = assay: Induction of apoptosis in human MFE280 cells assessed as late apoptotic cells at 100 nM by 7-AAD/Annexin staining-based assay (reference value: 6 to 7.4%); format: functional
MFE-296 [33] = assay: Induction of apoptosis in human MFE296 cells assessed as nuclear debris at 300 nM by 7-AAD/Annexin staining-based assay (reference value: 0.4 to 0.8%); format: functional
MCF7 [34] = assay: Antiproliferative activity against human MCF7 cells at 10 uM relative to control; format: functional, cell-based
MFE-296 [35] = assay: Cell cycle arrest in human MFE296 cells assessed as accumulation at G2/M phase at 100 nM (reference value: 15.71 to 17.04%); format: functional
T47D [36] = assay: Cell cycle arrest in human T47D cells assessed as accumulation at G2/M phase at 1000 nM (reference value: 20.58 to 28.8%); format: functional
MCF7 [37] = assay: Cell cycle arrest in human MCF7 cells assessed as accumulation at G1 phase at 300 nM (reference value: 47.47 to 52.3%); format: functional
T47D [38] = assay: Cell cycle arrest in human T47D cells assessed as accumulation at S phase at 300 nM (reference value: 19.89 to 24.55%); format: functional
T47D [39] = assay: Cell cycle arrest in human T47D cells assessed as accumulation at G1 phase at 300 nM (reference value: 45.5 to 57.8%); format: functional

SMILES: O=C(Nc1ccc(-c2cccc(Cl)c2)cn1)c1cncnc1
- Activity (MCF7 [1]): 16.61%
- Activity (MCF7 [2]): 23.22%
- Activity (MFE-280 [3]): 5.4%
- Activity (PC-3 [4]): 5.07%
- Activity (MCF7 [5]): 26.95%
- Activity (T47D [6]): 22.28%
- Activity (T47D [7]): 19.68%
- Activity (MFE-280 [8]): 46.61%
- Activity (A2780 [9]): 13.03%
- Activity (MFE-280 [10]): 39.17%
- Activity (MFE-280 [11]): 18.95%
- Activity (PC-3 [12]): 14.74%
- Activity (A2780 [13]): 20.89%
- Activity (MCF7 [14]): 19.1%
- Activity (MFE-280 [15]): 18.71%
- Activity (MCF7 [16]): 2.4%
- Activity (A2780 [17]): 77.58%
- Activity (A2780 [18]): 7.1%
- Activity (MFE-296 [19]): 18.15%
- Activity (PC-3 [20]): 60.72%
- Activity (MFE-296 [21]): 55.89%
- Activity (MFE-280 [22]): 21.09%
- Activity (PC-3 [23]): 17.78%
- Activity (MCF7 [24]): 8.04%
- Activity (PC-3 [25]): 76.06%
- Activity (MFE-296 [26]): 72.12%
- Activity (MFE-280 [27]): 61.48%
- Activity (T47D [28]): 22.91%
- Activity (MFE-280 [29]): 5.9%
- Activity (T47D [30]): 21.38%
- Activity (MFE-280 [31]): 8.4%
- Activity (MFE-280 [32]): 8.3%
- Activity (MFE-296 [33]): 2.6%
- EC50 (MCF7 [34]): 29 nM
- Activity (MFE-296 [35]): 21.13%
- Activity (T47D [36]): 43.07%
- Activity (MCF7 [37]): 16.22%
- Activity (T47D [38]): 27.41%
- Activity (T47D [39]): 42.55%
